Assay [1] deals with T1, Wee-1 kinase (Homo sapiens, UniProt P30291).
T1 construct: purchased Invitrogen PV3817
In words: Measurement of Wee-1 kinase activity (ADP-Glo luminescent kit). Format: biochemical. Summed up:
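Activated Wee-1 was pre-incubated 30 min at RT with compound in 40 mM Tris-HCl, 20 mM MgCl2, 0.1 mg/mL BSA and 2 mM DTT. The reaction was started with an aliquot of 2.0 μg/mL poly(Lys,Tyr 4:1) plus 30 μM ATP and run 1 h at RT. ADP-Glo luminescence gave IC50 by non-linear fit.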
(In general: In ADP-Glo the light output rises with the ADP produced.)

The subject of assay [2] is phospho-cdc2 (Tyr15) in HT-29 cells. Nature of the assay: Effect on Cdc2 phosphorylation at Tyr15, Cell-Based ELISA Base Kit (Method 3). The note with it: Homo sapiens, HT-29, 8 h, eight hours incubation, normalized to total cdc2, read-out: HT29 pCDC2 method 3. The gist of the method:
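HT-29 cells were treated with compounds for 8 h at 37 °C, then fixed in 4% formaldehyde. Phospho-cdc2 (Tyr15) and total cdc2 were read by dual-fluorogenic cell-based ELISA at 600/450 nm. Phospho signal was normalized to total cdc2 and expressed as % of DMSO control, and EC50 came from non-linear regression.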
On the technique in general: ELISA stands for enzyme-linked immunosorbent assay.

Usually IC50 stands for the midpoint of a concentration-inhibition curve.

T1 sequence (P30291 whole entry): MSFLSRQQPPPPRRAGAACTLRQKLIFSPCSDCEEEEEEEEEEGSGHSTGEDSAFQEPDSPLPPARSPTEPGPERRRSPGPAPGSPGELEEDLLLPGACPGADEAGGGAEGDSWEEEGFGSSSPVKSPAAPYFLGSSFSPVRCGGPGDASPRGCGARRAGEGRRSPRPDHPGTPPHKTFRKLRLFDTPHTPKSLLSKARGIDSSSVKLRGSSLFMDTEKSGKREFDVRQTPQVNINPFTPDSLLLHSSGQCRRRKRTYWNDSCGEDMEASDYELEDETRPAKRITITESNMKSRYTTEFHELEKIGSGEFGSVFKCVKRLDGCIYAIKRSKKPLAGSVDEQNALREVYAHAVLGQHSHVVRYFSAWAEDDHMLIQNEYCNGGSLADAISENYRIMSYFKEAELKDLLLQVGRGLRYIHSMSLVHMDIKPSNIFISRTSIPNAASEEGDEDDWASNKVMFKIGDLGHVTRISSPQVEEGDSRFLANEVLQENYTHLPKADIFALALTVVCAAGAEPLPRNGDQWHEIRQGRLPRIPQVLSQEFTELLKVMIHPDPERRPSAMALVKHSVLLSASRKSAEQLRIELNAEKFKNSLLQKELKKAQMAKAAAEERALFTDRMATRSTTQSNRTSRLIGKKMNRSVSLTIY

Turning to `CN1CN(c2c(Cl)cccc2Cl)C(=O)c2cnc(Nc3ccc(N4CCNCC4)c(C#N)c3)nc21` [Example 11, 3-(2,6-Dichlorophenyl)-7-((3-cyano-4-(piperazin-1-yl)phenyl)amino)-1-methyl-2,3-dihydropyrimido[4,5-d]pyrimidin-4(1H)-one], in assay [1], the IC50 was no more than 10 nM. The EC50 in assay [2] was in the range of 100 to 1000 nM.
For `CN1CN(c2c(F)cccc2Cl)C(=O)c2cnc(Nc3ccc(N4CCNCC4)cc3)nc21` [Example 25, 3-(2-Chloro-6-fluorophenyl)-1-methyl-7-((4-(piperazin-1-yl)phenyl)amino)-2,3-dihydropyrimido[4,5-d]pyrimidin-4(1H)-one] the same measures were 10 to 100 nM and 100 to 1000 nM.
For `C[C@H]1CN(c2ccc(Nc3ncc4c(n3)N(C)CN(c3c(Cl)cccc3Cl)C4=O)cc2)CCN1` [Example 17, (S)-3-(2,6-Dichlorophenyl)-1-methyl-7-((4-(3-methylpiperazin-1-yl)phenyl)amino)-2,3-dihydropyrimido[4,5-d]pyrimidin-4(1H)-one], in that order: 10 to 100 nM and 100 to 1000 nM.
For `CN1CN(c2c(Cl)cccc2Cl)C(=O)c2cnc(Nc3ccc(N4CCN[C@@H](CO)C4)cc3)nc21` [Example 19, (R)-3-(2,6-Dichlorophenyl)-7-((4-(3-(hydroxymethyl)piperazin-1-yl)phenyl)amino)-1-methyl-2,3-dihydropyrimido[4,5-d]pyrimidin-4(1H)-one] the same measures were no more than 10 nM and 100 to 1000 nM.
Consider `COC[C@H]1CN(c2ccc(Nc3ncc4c(n3)N(C)CN(c3c(Cl)cccc3Cl)C4=O)cc2)CCN1` [Example 60, (R)-3-(2,6-dichlorophenyl)-7-((4-(3-(methoxymethyl)piperazin-1-yl)phenyl)amino)-1-methyl-2,3-dihydropyrimido[4,5-d]pyrimidin-4(1H)-one], for which the IC50 in assay [1] fell in the range of 10 to 100 nM. The EC50 in assay [2] lay in the range of 100 to 1000 nM.
For `CC(C)N1CCN(c2ccc(Nc3ncc4c(n3)N(C)CN(c3c(Cl)cccc3Cl)C4=O)cc2CO)CC1` [Example 21, 3-(2,6-Dichlorophenyl)-7-((3-(hydroxymethyl)-4-(4-isopropylpiperazin-1-yl)phenyl)amino)-1-methyl-2,3-dihydropyrimido[4,5-d]pyrimidin-4(1H)-one] the same measures were 10 to 100 nM and 100 to 1000 nM.
For `CN1CN(c2c(Cl)cccc2Cl)C(=O)c2cnc(Nc3ccc4c(c3)CNCC4)nc21` [Example 14, 3-(2,6-Dichlorophenyl)-1-methyl-7-((1,2,3,4-tetrahydroisoquinolin-7-yl)amino)-2,3-dihydropyrimido[4,5-d]pyrimidin-4(1H)-one] the same measures were no more than 10 nM and 100 to 1000 nM.
For `C[C@@H]1CN(c2ccc(Nc3ncc4c(n3)N(C)CN(c3c(Cl)cccc3Cl)C4=O)cc2)CCN1` [Example 16, (R)-3-(2,6-Dichlorophenyl)-1-methyl-7-((4-(3-methylpiperazin-1-yl)phenyl)amino)-2,3-dihydropyrimido[4,5-d]pyrimidin-4(1H)-one], in that order: no more than 10 nM and 100 to 1000 nM.
As to `Cc1cc(Nc2ncc3c(n2)N(C)CN(c2c(Cl)cccc2Cl)C3=O)ccc1C1CCNCC1` [Example 18, 3-(2,6-Dichlorophenyl)-1-methyl-7-((3-methyl-4-(piperidin-4-yl)phenyl)amino)-2,3-dihydropyrimido[4,5-d]pyrimidin-4(1H)-one], the IC50 in assay [1] is no more than 10 nM. The EC50 in assay [2] is 100 to 1000 nM.
For `C[C@@H]1CN(c2ccc(Nc3ncc4c(n3)N(C)CN(c3c(Cl)cccc3Cl)C4=O)cc2)[C@@H](C)CN1` [Example 80, 3-(2,6-dichlorophenyl)-7-((4-((2S,5R)-2,5-dimethylpiperazin-1-yl)phenyl)amino)-1-methyl-2,3-dihydropyrimido[4,5-d]pyrimidin-4(1H)-one], in that order: no more than 10 nM and 100 to 1000 nM.
For `COc1cc(Nc2ncc3c(n2)N(C)CN(c2c(Cl)cccc2Cl)C3=O)ccc1N1CCNCC1` [Example 3, 3-(2,6-Dichlorophenyl)-7-((3-methoxy-4-(piperazin-1-yl)phenyl)amino)-1-methyl-2,3-dihydropyrimido[4,5-d]pyrimidin-4(1H)-one], in that order: no more than 10 nM and 100 to 1000 nM.
For `C[C@@H]1CN(c2ccc(Nc3ncc4c(n3)N(C)CN(c3c(Cl)cccc3Cl)C4=O)cc2F)CCN1` [Example 43, (R)-3-(2,6-dichlorophenyl)-7-((3-fluoro-4-(3-methylpiperazin-1-yl)phenyl)amino)-1-methyl-2,3-dihydropyrimido[4,5-d]pyrimidin-4(1H)-one], in that order: no more than 10 nM and 100 to 1000 nM.
Regarding `COCc1cc(Nc2ncc3c(n2)N(C)CN(c2c(Cl)cccc2Cl)C3=O)ccc1N1CCN[C@H](C)C1` [Example 59, (R)-3-(2,6-dichlorophenyl)-7-((3-(methoxymethyl)-4-(3-methylpiperazin-1-yl)phenyl)amino)-1-methyl-2,3-dihydropyrimido[4,5-d]pyrimidin-4(1H)-one], the IC50 in assay [1] was 10 to 100 nM. Besides, the EC50 in assay [2] was in the range of 100 to 1000 nM.
For `CN1CN(c2c(Cl)cccc2Cl)C(=O)c2cnc(Nc3ccc(N4CCN(C(=O)CN)CC4)cc3)nc21` [Example 13, 7-((4-(4-(2-Aminoacetyl)piperazin-1-yl)phenyl)amino)-3-(2,6-dichlorophenyl)-1-methyl-2,3-dihydropyrimido[4,5-d]pyrimidin-4(1H)-one] the same measures were no more than 10 nM and 100 to 1000 nM.
For `C[C@@H]1CN(c2ccc(Nc3ncc4c(n3)N(C)CN(c3c(F)cccc3Cl)C4=O)cc2)CCN1` [Example 53, (R)-3-(2-chloro-6-fluorophenyl)-1-methyl-7-((4-(3-methylpiperazin-1-yl)phenyl)amino)-2,3-dihydropyrimido[4,5-d]pyrimidin-4(1H)-one] the same measures were 10 to 100 nM and 100 to 1000 nM.
For `CN1CN(c2c(Cl)cccc2Cl)C(=O)c2cnc(Nc3ccc(N4CCNCC4)cc3)nc21` [Example 1, 3-(2,6-Dichlorophenyl)-1-methyl-7-((4-(piperazin-1-yl)phenyl)amino)-2,3-dihydropyrimido[4,5-d]pyrimidin-4(1H)-one], in that order: no more than 10 nM and 100 to 1000 nM.
As for `CNCCOc1ccc(Nc2ncc3c(n2)N(C)CN(c2c(Cl)cccc2Cl)C3=O)cc1` [Example 2, 3-(2,6-Dichlorophenyl)-1-methyl-7-((4-(2-(methylamino)ethoxy)phenyl)amino)-2,3-dihydropyrimido[4,5-d]pyrimidin-4(1H)-one], the IC50 in assay [1] was no more than 10 nM. Besides, the EC50 in assay [2] was in the range of 100 to 1000 nM.
For `[2H]C1([2H])N(C)c2nc(Nc3ccc(N4CCNCC4)cc3)ncc2C(=O)N1c1c(Cl)cccc1Cl` [Example 15, 3-(2,6-Dichlorophenyl)-2,2-dideutero-1-methyl-7-((4-(piperazin-1-yl)phenyl)amino)-2,3-dihydropyrimido[4,5-d]pyrimidin-4(1H)-one] the same measures were no more than 10 nM and 100 to 1000 nM.
For `COCc1cc(Nc2ncc3c(n2)N(C)CN(c2c(Cl)cccc2Cl)C3=O)ccc1N1CCNCC1` [Example 31, 3-(2,6-dichlorophenyl)-7-((3-(methoxymethyl)-4-(piperazin-1-yl)phenyl)amino)-1-methyl-2,3-dihydropyrimido[4,5-d]pyrimidin-4(1H)-one] the same measures were 10 to 100 nM and 100 to 1000 nM.
For `CNCc1cc(Nc2ncc3c(n2)N(C)CN(c2c(Cl)cccc2Cl)C3=O)ccc1N1CCOCC1` [Example 5, 3-(2,6-Dichlorophenyl)-1-methyl-7-((3-((methylamino)methyl)-4-morpholinophenyl)amino)-2,3-dihydropyrimido[4,5-d]pyrimidin-4(1H)-one] the same measures were no more than 10 nM and 100 to 1000 nM.
For `CN1CN(c2c(Cl)cccc2Cl)C(=O)c2cnc(Nc3ccc(N4CC5CCC(C4)N5C)c(CO)c3)nc21` [Example 86, 3-(2,6-dichlorophenyl)-7-((3-(hydroxymethyl)-4-(8-methyl-3,8-diazabicyclo[3.2.1]octan-3-yl)phenyl)amino)-1-methyl-2,3-dihydropyrimido[4,5-d]pyrimidin-4(1H)-one], the IC50 in assay [1] was no more than 10 nM. Besides, the EC50 in assay [2] lay within 100 to 1000 nM.
For `CN1CCc2ccc(Nc3ncc4c(n3)N(C)CN(c3c(Cl)cccc3Cl)C4=O)cc2C1` [Example 22, 3-(2,6-Dichlorophenyl)-1-methyl-7-((2-methyl-1,2,3,4-tetrahydroisoquinolin-7-yl)amino)-2,3-dihydropyrimido[4,5-d]pyrimidin-4(1H)-one], in that order: no more than 10 nM and 100 to 1000 nM.
For `C[C@@H]1CN[C@@H](C)CN1c1ccc(Nc2ncc3c(n2)N(C)CN(c2c(Cl)cccc2Cl)C3=O)cc1` [Example 40, 3-(2,6-dichlorophenyl)-7-((4-((2R,5S)-2,5-dimethylpiperazin-1-yl)phenyl)amino)-1-methyl-2,3-dihydropyrimido[4,5-d]pyrimidin-4(1H)-one] the same measures were no more than 10 nM and 100 to 1000 nM.
For `Cc1cc(Nc2ncc3c(n2)N(C)CN(c2c(Cl)cccc2Cl)C3=O)ccc1N1CCNCC1` [Example 6, 3-(2,6-Dichlorophenyl)-1-methyl-7-((3-methyl-4-(piperazin-1-yl)phenyl)amino)-2,3-dihydropyrimido[4,5-d]pyrimidin-4(1H)-one] the same measures were no more than 10 nM and 100 to 1000 nM.
As for `CN1CN(c2c(Cl)cccc2Cl)C(=O)c2cnc(Nc3ccc(N4CC5CCC(C4)N5)cc3)nc21` [Example 74, 7-((4-(3,8-diazabicyclo[3.2.1]octan-3-yl)phenyl)amino)-3-(2,6-dichlorophenyl)-1-methyl-2,3-dihydropyrimido [4,5-d]pyrimidin-4(1H)-one], in assay [1], the concentration for half-maximal inhibition (IC50) lay in the range of 10 to 100 nM. Also, in assay [2], the EC50 fell in the range of 100 to 1000 nM.

These data come from patent publication US9850247B2 (Almac Discovery Limited, priority 2013, dated 2017).
